{"source": "patent US8496914B2", "about": "“Antibacterial oral rinse formulation for preventing coronary artery disease” (priority 2005, dated 2013)", "origin": "cited, not measured here", "key": {"[1]": {"test_system": "Staphylococcus aureus, Staphylococcus epidermidis and Propionibacterium acnes", "settings": "Raman et al. 1995"}, "Staphylococcus aureus": {"test_system": "Staphylococcus aureus", "settings": "Williams et al. 1997"}}, "data": [{"smiles": "CC1=CCC2CC1C2(C)C", "note": "(stereo not drawn) [alpha-pinene]", "values": [{"measurement": "inhibition of three bacterial strains", "setting": "[1]", "value": "inhibit"}]}, {"smiles": "CC1=CCC(C(C)(C)O)CC1", "note": "(stereo not drawn) [alpha-terpineol]", "values": [{"measurement": "inhibition of three bacterial strains", "setting": "[1]", "value": "inhibit"}]}, {"smiles": "CC1=CCC(O)(C(C)C)CC1", "note": "(stereo not shown) [terpinen-4-ol]", "values": [{"measurement": "inhibition of three bacterial strains", "setting": "[1]", "value": "inhibit"}, {"measurement": "activity against Staphylococcus aureus", "setting": "Staphylococcus aureus", "value": "equally effective"}]}]}
